From article PMC7346717 (Nature structural & molecular biology, 2018)

Tests used:
[1] = target: T1, ΔN-drSLC38A9 (ΔN-SLC38A9) (Danio rerio, UniProt Q08BA4, N227Q/N235Q/N252Q/N263Q); assay: proteoliposome radioligand uptake; type: biochemical; conditions: 0.5 μM [3H]L-arginine, labelled compound; NaCl, MES pH 5.0
T1 sequence (Q08BA4 71-549 N227Q/N235Q/N252Q/N263Q): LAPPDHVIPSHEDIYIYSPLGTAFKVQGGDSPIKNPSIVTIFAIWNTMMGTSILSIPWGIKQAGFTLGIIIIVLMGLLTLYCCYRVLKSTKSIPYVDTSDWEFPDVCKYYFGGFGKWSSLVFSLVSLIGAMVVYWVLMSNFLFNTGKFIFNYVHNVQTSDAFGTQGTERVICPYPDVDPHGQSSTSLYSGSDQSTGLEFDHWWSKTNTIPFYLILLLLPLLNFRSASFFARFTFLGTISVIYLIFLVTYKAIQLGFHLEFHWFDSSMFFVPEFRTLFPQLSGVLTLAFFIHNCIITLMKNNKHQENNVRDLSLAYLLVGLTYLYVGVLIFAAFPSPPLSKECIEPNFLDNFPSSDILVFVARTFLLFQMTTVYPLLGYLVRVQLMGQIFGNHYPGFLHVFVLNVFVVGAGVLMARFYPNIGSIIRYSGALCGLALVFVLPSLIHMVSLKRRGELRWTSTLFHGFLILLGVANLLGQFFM

[2] = target: T2, drSLC38A9 (full-length, wild-type) (Danio rerio, UniProt Q08BA4); assay: proteoliposome radioligand uptake; type: biochemical; conditions: 0.5 μM [3H]L-arginine, labelled compound; Na+ (not K+ or NMG), pH 5.0
T2 sequence (Q08BA4 1-549): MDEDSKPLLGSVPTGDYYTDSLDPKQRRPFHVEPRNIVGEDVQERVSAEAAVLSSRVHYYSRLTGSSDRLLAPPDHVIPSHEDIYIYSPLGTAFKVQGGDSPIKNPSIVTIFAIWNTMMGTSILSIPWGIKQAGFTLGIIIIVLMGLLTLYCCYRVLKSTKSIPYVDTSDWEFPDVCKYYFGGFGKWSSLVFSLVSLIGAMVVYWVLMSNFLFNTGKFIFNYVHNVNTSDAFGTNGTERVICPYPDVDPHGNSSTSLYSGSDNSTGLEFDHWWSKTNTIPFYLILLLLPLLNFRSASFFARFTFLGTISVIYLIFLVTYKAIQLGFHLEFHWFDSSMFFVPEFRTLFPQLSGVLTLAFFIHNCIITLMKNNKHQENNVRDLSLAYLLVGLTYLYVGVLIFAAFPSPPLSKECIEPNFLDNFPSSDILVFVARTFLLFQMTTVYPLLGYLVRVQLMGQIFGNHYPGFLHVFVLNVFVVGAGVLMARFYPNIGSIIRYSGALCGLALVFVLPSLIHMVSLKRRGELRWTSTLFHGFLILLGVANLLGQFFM

SMILES: N=C(N)NCCC[C@H](N)C(=O)O [arginine]
- proteoliposome radioligand uptake [1]: the truncated drSLC38A9 protein is active and able to bind arginine similarly to the wild-type
- proteoliposome radioligand uptake [2]: robust uptake was observed in the presence of sodium
